Results on nine compounds are retold here after ChEMBL document CHEMBL1201861, “Genomics of Drug Sensitity in Cancer screening data, Wellcome Trust Sanger Institute”.

SMILES strings stand for the structures. Bounds are passed on as bounds.

One assay concerns SNU-423. Briefly: cells. It counts as functional, cell-based, Homo sapiens. As to conditions: Homo sapiens, SNU-423.
Another assay has as its system NBsusSR. Briefly: cells. As to conditions: Homo sapiens. It counts as functional, cell-based.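 Also: growth inhibition of the human cell line, read out with a cell viability assay.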
The subject of a further assay is NCI-H1573. In words: cells. As to conditions: Homo sapiens. It counts as functional, cell-based.
A further assay relates to ZR-75-30. In words: cells. The class given is functional, cell-based. The conditions noted are these: Homo sapiens.
In the next assay the test system is EW-22. In words: cells. It counts as functional, cell-based. The conditions noted are these: Homo sapiens.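 Also: growth inhibition of the EW-22 cell line, measured with a cell viability readout.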
A further assay relates to NCI-H630. Briefly: cells. The conditions noted are these: Homo sapiens, NCI-H630. The class given is functional, cell-based, Homo sapiens.
A further assay concerns OC-314. Briefly: cells. It counts as functional, cell-based. The conditions noted are these: Homo sapiens.
In another assay the test system is TI-73. Briefly: cells. It counts as functional, cell-based. The conditions noted are these: Homo sapiens.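 Also: cell viability assay measuring how much compounds suppress growth of the cultured cell line.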
A further assay relates to A549. In words: cells. It counts as functional, cell-based. The conditions noted are these: Homo sapiens.
In another assay the test system is RH-18. In words: cells. The class given is functional, cell-based. As to conditions: Homo sapiens, Rh18.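 Also: growth inhibition of human RH-18 cells, read out with a cell viability assay.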
A further assay relates to NCI-H1666. In words: cells. It counts as functional, cell-based. The conditions noted are these: Homo sapiens.
The subject of another assay is BT-549. Briefly: cells. The class given is functional, cell-based. The conditions noted are these: Homo sapiens.
In a further assay the test system is Kasumi 1. In words: cells. It counts as functional, cell-based. As to conditions: Homo sapiens.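 Also: growth inhibition of human Kasumi-1 cells, read out by a cell viability assay.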
For another assay, the system named is CHP-126. Briefly: cells. The class given is functional, cell-based. As to conditions: Homo sapiens.
A further assay relates to WSU-NHL. In words: cells. The class given is functional, cell-based. As to conditions: Homo sapiens.
The next assay deals with SCC-3. In words: cells. It counts as functional, cell-based. As to conditions: Homo sapiens.
The test system of the next assay is RPMI 8402. Briefly: SANGER: Inhibition of human RPMI-8402 cell growth in a cell viability assay. The class given is functional, cell-based.
The test system of another assay is MHH-CALL-2. Briefly: cells. The class given is functional, cell-based. The conditions noted are these: Homo sapiens.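 Also: growth inhibition of the cell line, read out in a cell viability assay.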
In another assay the test system is EW-12. In words: SANGER: Inhibition of human EW-12 cell growth in a cell viability assay. The class given is functional, cell-based.
A further assay has as its system NCI-H128. Briefly: SANGER: Inhibition of human NCI-H128 cell growth in a cell viability assay. It counts as functional, cell-based.
Another assay deals with LOUCY. Briefly: cells. The class given is functional, cell-based. The conditions noted are these: Homo sapiens.
In a further assay the test system is PF-382. In words: cells. The class given is functional, cell-based. As to conditions: Homo sapiens.
The next assay concerns BOKU. Briefly: cells. It counts as functional, cell-based. The conditions noted are these: Homo sapiens.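 Also: growth inhibition of the human BOKU cell line, read out by a cell viability assay.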
For a further assay, the system named is JIYOYE. Briefly: cells. It counts as functional, cell-based. The conditions noted are these: Homo sapiens.
In another assay the test system is NB1. Briefly: cells. It counts as functional, cell-based. As to conditions: Homo sapiens.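 Also: reduction of NB1 cell proliferation, read out with a viability assay.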
The next assay relates to MRK-nu-1. In words: cells. As to conditions: Homo sapiens. It counts as functional, cell-based.
Another assay has as its system SNU-C1. Briefly: cells. The conditions noted are these: Homo sapiens. It counts as functional, cell-based.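 Also: growth inhibition of SNU-C1 human cells, read out by a cell viability assay.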
For the next assay, the system named is TE-15. Briefly: cells. It counts as functional, cell-based. As to conditions: Homo sapiens.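 Also: cell viability readout of growth inhibition in TE-15 cells.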
Another assay relates to NCI-H1522. Briefly: cells. It counts as functional, cell-based. The conditions noted are these: Homo sapiens.
Another assay relates to NCI-H2081. In words: cells. It counts as functional, cell-based. The conditions noted are these: Homo sapiens.
The subject of the next assay is CESS. In words: SANGER: Inhibition of human CESS cell growth in a cell viability assay. The class given is functional, cell-based.
The test system of a further assay is NCI-H524. Briefly: cells. It counts as functional, cell-based. As to conditions: Homo sapiens.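 Also: growth inhibition of human NCI-H524 cells, read out through a cell viability assay.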
The subject of a further assay is SNU-16. Briefly: cells. It counts as functional, cell-based. As to conditions: Homo sapiens.
The subject of a further assay is CA46. In words: cells. The class given is functional, cell-based. The conditions noted are these: Homo sapiens.
The subject of another assay is SIG-M5. In words: cells. The class given is functional, cell-based. The conditions noted are these: Homo sapiens.
The next assay has as its system CMK. Briefly: cells. The conditions noted are these: Homo sapiens. It counts as functional, cell-based.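 Also: growth inhibition of CMK cells, read out as cell viability.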
The next assay has as its system SU-DHL-1. In words: SANGER: Inhibition of human SU-DHL-1 cell growth in a cell viability assay. It counts as functional, cell-based.
A further assay concerns EVSA-T. In words: cells. As to conditions: Homo sapiens, EVSA-T. It counts as functional, cell-based, Homo sapiens.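 Also: growth inhibition of EVSA-T cells, read out with a cell viability assay.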
The subject of the next assay is Raji. Briefly: cells. It counts as functional, cell-based. As to conditions: Homo sapiens.

For orientation: IC50 means the concentration needed to halve the response being measured.

Description for A549: SANGER: Inhibition of human A549 cell growth in a cell viability assay.
Description for BOKU: SANGER: Inhibition of human BOKU cell growth in a cell viability assay.
Description for BT-549: SANGER: Inhibition of human BT-549 cell growth in a cell viability assay.
Description for CA46: SANGER: Inhibition of human CA46 cell growth in a cell viability assay.
Description for CHP-126: SANGER: Inhibition of human CHP-126 cell growth in a cell viability assay.
Description for CMK: SANGER: Inhibition of human CMK cell growth in a cell viability assay.
Description for EVSA-T: SANGER: Inhibition of human EVSA-T cell growth in a cell viability assay.
Description for EW-22: SANGER: Inhibition of human EW-22 cell growth in a cell viability assay.
Description for JIYOYE: SANGER: Inhibition of human JiyoyeP-2003 cell growth in a cell viability assay.
Description for Kasumi 1: SANGER: Inhibition of human KASUMI-1 cell growth in a cell viability assay.
Description for LOUCY: SANGER: Inhibition of human LOUCY cell growth in a cell viability assay.
Description for MHH-CALL-2: SANGER: Inhibition of human MHH-CALL-2 cell growth in a cell viability assay.
Description for MRK-nu-1: SANGER: Inhibition of human MRK-nu-1 cell growth in a cell viability assay.
Description for NB1: SANGER: Inhibition of human NB1 cell growth in a cell viability assay.
Description for NBsusSR: SANGER: Inhibition of human NBsusSR cell growth in a cell viability assay.
Description for NCI-H1522: SANGER: Inhibition of human NCI-H1522 cell growth in a cell viability assay.
Description for NCI-H1573: SANGER: Inhibition of human NCI-H1573 cell growth in a cell viability assay.
Description for NCI-H1666: SANGER: Inhibition of human NCI-H1666 cell growth in a cell viability assay.
Description for NCI-H2081: SANGER: Inhibition of human NCI-H2081 cell growth in a cell viability assay.
Description for NCI-H524: SANGER: Inhibition of human NCI-H524 cell growth in a cell viability assay.
Description for NCI-H630: SANGER: Inhibition of human NCI-H630 cell growth in a cell viability assay.
Description for OC-314: SANGER: Inhibition of human OC-314 cell growth in a cell viability assay.
Description for PF-382: SANGER: Inhibition of human PF-382 cell growth in a cell viability assay.
Description for RH-18: SANGER: Inhibition of human RH-18 cell growth in a cell viability assay.
Description for Raji: SANGER: Inhibition of human Raji cell growth in a cell viability assay.
Description for SCC-3: SANGER: Inhibition of human SCC-3 cell growth in a cell viability assay.
Description for SIG-M5: SANGER: Inhibition of human SIG-M5 cell growth in a cell viability assay.
Description for SNU-16: SANGER: Inhibition of human NCI-SNU-16 cell growth in a cell viability assay.
Description for SNU-423: SANGER: Inhibition of human SNU-423 cell growth in a cell viability assay.
Description for SNU-C1: SANGER: Inhibition of human SNU-C1 cell growth in a cell viability assay.
Description for TE-15: SANGER: Inhibition of human TE-15 cell growth in a cell viability assay.
Description for TI-73: SANGER: Inhibition of human TI-73 cell growth in a cell viability assay.
Description for WSU-NHL: SANGER: Inhibition of human WSU-NHL cell growth in a cell viability assay.
Description for ZR-75-30: SANGER: Inhibition of human ZR-75-30 cell growth in a cell viability assay.

For `CN(Cc1cnc2nc(N)nc(N)c2n1)c1ccc(C(=O)N[C@@H](CCC(=O)O)C(=O)O)cc1` [METHOTREXATE], the concentration for half-maximal inhibition (IC50) was over 200 nM in the assay on SNU-423; 29.6 nM in the assay on NBsusSR; over 200 nM in the assay on NCI-H1573; over 200 nM in the assay on ZR-75-30; over 200 nM with EW-22; over 200 nM in the assay with NCI-H630. Moreover, the IC50 in the assay on OC-314, in the assay with TI-73, in the assay on A549, with RH-18 and in the assay with NCI-H1666 was over 200 nM in each case.
For the compound `Nc1ccn([C@@H]2O[C@H](CO)[C@@H](O)[C@@H]2O)c(=O)n1` [CYTARABINE], the concentration for half-maximal inhibition (IC50) is 881 nM in the assay with SNU-423; 335 nM in the assay with NBsusSR; 531 nM in the assay with BT-549; over 2000 nM in the assay with NCI-H1573; over 2000 nM in the assay with ZR-75-30; 668 nM in the assay on EW-22. Moreover, the IC50 with NCI-H630 was over 2000 nM; in the assay on Kasumi 1, over 2000 nM; in the assay with OC-314, 399 nM; with TI-73, 613 nM; with A549, 49.7 nM; in the assay with RH-18 it was over 2000 nM. The compound also displayed a concentration for half-maximal inhibition (IC50) in the assay on NCI-H1666 of 1580 nM.
For `O=C(c1cc(Cc2n[nH]c(=O)c3ccccc23)ccc1F)N1CCN(C(=O)C2CC2)CC1` [OLAPARIB], the IC50 in the assay on SNU-423 was over 5000 nM; in the assay on NBsusSR, over 5000 nM; in the assay on NCI-H1573 it was over 5000 nM; with ZR-75-30 it was over 5000 nM; with EW-22 it was 4360 nM; in the assay on NCI-H630, over 5000 nM. Besides, the IC50 with Kasumi 1 was 4400 nM; in the assay on OC-314, over 5000 nM; with TI-73, over 5000 nM; in the assay with A549 it was over 5000 nM; in the assay with RH-18 it was over 5000 nM; with NCI-H1666, over 5000 nM.
In the case of `Cc1cc(Nc2cc(N3CCN(C)CC3)nc(Sc3ccc(NC(=O)C4CC4)cc3)n2)n[nH]1` [TOZASERTIB], the half-inhibitory concentration (IC50) in the assay on CHP-126, in the assay on WSU-NHL, in the assay on SCC-3, in the assay on RPMI 8402, in the assay with MHH-CALL-2 and in the assay with EW-12 was over 2000 nM each time. The IC50 with NCI-H128, with LOUCY, with PF-382, with BOKU, in the assay with JIYOYE and in the assay on NB1 was over 2000 nM in each case. Moreover, the concentration for half-maximal inhibition (IC50) with MRK-nu-1 is 381 nM; with SNU-C1, over 2000 nM; in the assay with TE-15 it was 851 nM; in the assay with NCI-H1522, over 2000 nM; with Kasumi 1, over 2000 nM; in the assay on NCI-H2081 it was over 2000 nM. The IC50 is 313 nM in the assay with CESS; 511 nM with NCI-H524; 636 nM with SNU-16; over 2000 nM with CA46; 167 nM in the assay with SIG-M5; 1420 nM in the assay with CMK. Also, the concentration for half-maximal inhibition (IC50) in the assay with SU-DHL-1, in the assay on EVSA-T and in the assay with Raji was over 2000 nM throughout.
As for `O=C(NOCC1CC1)c1ccc(F)c(F)c1Nc1ccc(I)cc1Cl` [CI-1040], the concentration for half-maximal inhibition (IC50) in the assay with NBsusSR is 5570 nM; in the assay with BT-549, over 10000 nM; in the assay on NCI-H1573, over 10000 nM; in the assay with ZR-75-30 it was over 10000 nM; with EW-22, over 10000 nM; in the assay with NCI-H630 it was over 10000 nM. Moreover, the IC50 in the assay with Kasumi 1 was 399 nM; in the assay with OC-314 it was over 10000 nM; in the assay on TI-73, over 10000 nM; in the assay on A549 it was 1200 nM; with RH-18 it was over 10000 nM; in the assay with NCI-H1666 it was 6080 nM.
For the compound `Cn1cc(C2=C(c3ccc(Cl)cc3Cl)C(=O)NC2=O)c2ccccc21` [SB-216763], the IC50 in the assay with NBsusSR was over 10000 nM; in the assay on BT-549, 5290 nM; in the assay with NCI-H1573, over 10000 nM; in the assay on ZR-75-30, over 10000 nM; in the assay on EW-22 it was over 10000 nM; with NCI-H630 it was over 10000 nM. Further, the IC50 with OC-314, in the assay with TI-73, in the assay with A549, in the assay with RH-18 and with NCI-H1666 was over 10000 nM throughout.
With `CN(C)C/C=C/C(=O)Nc1cc2c(Nc3ccc(F)c(Cl)c3)ncnc2cc1O[C@H]1CCOC1` [AFATINIB], the IC50 in the assay on SNU-423 was over 500 nM; in the assay with NBsusSR it was over 500 nM; in the assay with BT-549, over 500 nM; in the assay with NCI-H1573 it was over 500 nM; in the assay with ZR-75-30, 95.5 nM; in the assay with EW-22, over 500 nM. The IC50 in the assay with NCI-H630 is over 500 nM; in the assay on Kasumi 1, 9.11 nM; in the assay with OC-314, over 500 nM; with TI-73 it was 147 nM; in the assay on A549, over 500 nM; in the assay on RH-18, over 500 nM. Besides, the 50% inhibitory concentration (IC50) in the assay on NCI-H1666 is over 500 nM.
For the compound `CCC(=O)N1CCN(c2ccc(-n3c(=O)ccc4cnc5ccc(-c6cnc7ccccc7c6)cc5c43)cc2C(F)(F)F)CC1` [TORIN1], the half-maximal inhibitory concentration (IC50) in the assay on CHP-126 is over 1200 nM; with WSU-NHL, over 1200 nM; in the assay on SCC-3, 129 nM; in the assay with RPMI 8402 it was 77.9 nM; with MHH-CALL-2, 335 nM; in the assay with EW-12, over 1200 nM. The half-inhibitory concentration (IC50) with NCI-H128 is over 1200 nM; in the assay with LOUCY, 63.9 nM; with PF-382, 75.7 nM; with BOKU it was 372 nM; in the assay with JIYOYE it was 108 nM; in the assay with NB1, 279 nM. Further, the half-maximal inhibitory concentration (IC50) with MRK-nu-1 is 7.07 nM; in the assay on SNU-C1, 382 nM; with TE-15 it was 44.3 nM; in the assay with NCI-H1522, 649 nM; with Kasumi 1, over 1200 nM; in the assay on NCI-H2081 it was over 1200 nM. Moreover, the 50% inhibitory concentration (IC50) in the assay with CESS came out at 31 nM; in the assay on NCI-H524, 587 nM; in the assay on SNU-16, 302 nM; in the assay with CA46, 509 nM; with SIG-M5, 89 nM; with CMK it was 15.4 nM. Besides, the IC50 in the assay with SU-DHL-1 was 645 nM; in the assay with EVSA-T, 8.92 nM; in the assay on Raji it was over 1200 nM.
With `CC(=O)O[C@@]12CO[C@@H]1C[C@H](O)[C@@]1(C)C(=O)[C@H](O)C3=C(C)[C@@H](OC(=O)[C@H](O)[C@@H](NC(=O)OC(C)(C)C)c4ccccc4)C[C@@](O)([C@@H](OC(=O)c4ccccc4)[C@H]21)C3(C)C` [DOCETAXEL], the IC50 was 8.57 nM with SNU-423; 1.1 nM with NBsusSR; 6.07 nM in the assay on NCI-H1573; over 10 nM with ZR-75-30; over 10 nM in the assay on EW-22; over 10 nM in the assay with NCI-H630. Further, the IC50 in the assay on Kasumi 1 is 5.11 nM; with OC-314, 2.56 nM; in the assay with TI-73, 1.44 nM; in the assay with A549 it was 0.882 nM; in the assay on RH-18 it was over 10 nM; in the assay on NCI-H1666, 5.05 nM.
